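96-well plates; 48 h exposure; 5 concentrations. Endpoints by linear interpolation between flanking doses. Not reached: highest tested concentration assigned. TGI denotes the concentration required for complete inhibition of growth.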
What was measured:
Experiment in all cases: growth of human tumour cells (NCI), 48 h
EKVX NSCLC = test system: EKVX NSCLC
SR leukemia = test system: SR leukemia
RXF 393 renal = test system: RXF 393 renal
SN12C renal = test system: SN12C renal
COLO 205 colon = test system: COLO 205 colon
RPMI-8226 leukemia = test system: RPMI-8226 leukemia
MALME-3M melanoma = test system: MALME-3M melanoma
NCI-H23 lung = test system: NCI-H23 lung
U251 CNS = test system: U251 CNS
DU-145 prostate = test system: DU-145 prostate
OVCAR-5 ovarian = test system: OVCAR-5 ovarian
BT-549 breast = test system: BT-549 breast

| Compound | TGI (EKVX NSCLC) [µM] | TGI (SR leukemia) [µM] | TGI (RXF 393 renal) [µM] | TGI (SN12C renal) [µM] | TGI (COLO 205 colon) [µM] | TGI (RPMI-8226 leukemia) [µM] | TGI (MALME-3M melanoma) [µM] | TGI (NCI-H23 lung) [µM] | TGI (U251 CNS) [µM] | TGI (DU-145 prostate) [µM] | TGI (OVCAR-5 ovarian) [µM] | TGI (BT-549 breast) [µM] |
| --- | --- | --- | --- | --- | --- | --- | --- | --- | --- | --- | --- | --- |
| COC(=O)c1c(O)ccc2c1c1c(n2Cc2ccc(Cl)cc2Cl)C(=O)c2ccccc2C1=O | 24.5 | 12.3 | 19.7 | 5.62 | 24.3 | 13.5 | 34.2 | 24.8 | 24.6 | 31.2 | 42.9 | 26.1 |
| C=CCSC1=N/C(=C\c2cccs2)C(=O)N1CC=C | 71.4 | > 100 | 64.2 | > 100 | > 100 | 91.3 | > 100 | > 100 | > 100 | > 100 | > 100 | > 100 |
| CCN(CC)CCNC(=O)c1cc2cc(NC(=O)c3cc4cc(NC(=O)c5cc6cc(N)ccc6[nH]5)ccc4[nH]3)ccc2[nH]1 | > 100 | > 100 | > 100 | > 100 | > 100 | > 100 | > 100 | > 100 | > 100 | > 100 | > 100 | > 100 |
| Nc1ccn(C2CCC(CO)O2)c(=S)n1 (stereo not drawn) | > 100 | > 100 | > 100 | > 100 | > 100 | > 100 | > 100 | > 100 | > 100 | > 100 | > 100 | > 100 |

— PubChem BioAssay (NCI)
